Laboratory results as given in ChEMBL document CHEMBL1201862, “PubChem BioAssay data set” (2004).
The source made the active and inactive calls.

What was measured:
[1] = system: BJ; test: BJ-TERT fibroblast viability loss – cell-based, RAS-independent, luminescence, dose response (AID 1933); assay type: functional; conditions: Homo sapiens
[2] = system: BJ; test: cells; assay type: functional, cell-based; conditions: Homo sapiens
[3] = system: BJ; test: BJ-TERT-LT-ST fibroblast viability loss – cell-based, RAS-independent, luminescence, dose response (AID 1935); assay type: functional; conditions: Homo sapiens;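 note: BJ fibroblasts immortalized with TERT plus LT and ST oncogenes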
[4] = DRD fibroblast viability loss – cell-based, non-viral oncogenic, luminescence, dose response (AID 1934); assay type: functional; conditions: Homo sapiens
[5] = THP-1 cell cytotoxicity, dose response, cytotoxicity control for non-replicating M. tuberculosis project (AID 489025); assay type: functional
[6] = Vero E6 cell cytotoxicity, dose response, cytotoxicity control for non-replicating M. tuberculosis project, secondary assay (AID 492998); assay type: functional, VeroE6; conditions: Vero C1008
[7] = cells; assay type: functional
[8] = biological target: Guanyl-specific ribonuclease T1 (Aspergillus oryzae (strain ATCC 42149 / RIB 40), UniProt P00651); test: inhibition of ribonuclease T1 activity – biochemical, fluorescence polarization, 1536-well, counter-screen for TPT1 inhibitor project, dose response (AID 2167)
[9] = biological target: Ion channel NompC (Danio rerio, UniProt Q7T1G6); test: Dose response cell-based high-throughput screening assay for agonists of the transient receptor potential channel N1 (TRPN1). [Related pubchem assays (depositor defined):AID1424, AID1448]; assay type: functional
[10] = biological target: Likely tRNA 2'-phosphotransferase (Candida albicans (strain SC5314 / ATCC MYA-2876) (Yeast), UniProt Q5A7N4); test: inhibition of Candida TPT1 enzyme activity – biochemical, fluorescence polarization, dose response (AID 2160)
[11] = biological target: Mucolipin-3 (Homo sapiens, UniProt Q8TDD5); test: Fluorescence counterscreen assay for […] agonists: dose response cell-based high-throughput screening assay to identify agonists of the transient receptor potential channel ML3 (TRPML3). [Related pubchem assays: 1424, 1448 ]; assay type: functional
[12] = biological target: T1, Endoribonuclease toxin MazF (Escherichia coli K-12, UniProt P0AE70); test: activation of MazEF endoribonuclease cleavage – biochemical, fluorescence, single-stranded RNA substrate, uHTS hits, dose response (AID 588481); assay type: functional
T1 sequence (P0AE70 whole entry): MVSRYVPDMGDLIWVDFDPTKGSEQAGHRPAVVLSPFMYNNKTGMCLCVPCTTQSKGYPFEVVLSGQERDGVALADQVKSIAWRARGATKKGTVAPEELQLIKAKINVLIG

[13] = biological target: T1, Endoribonuclease toxin MazF; test: substrate-only fluorescence increase artefacts – biochemical, single-stranded RNase substrate, counter-screen for MazEF activator project, dose response (AID 588502); assay type: functional
[14] = biological target: Intestinal-type alkaline phosphatase (Homo sapiens, UniProt P09923); test: human intestinal alkaline phosphatase activators, dose response, biochemical, luminescence, uHTS hits (AID 463120); assay type: functional
Chain of Intestinal-type alkaline phosphatase (P09923 whole entry): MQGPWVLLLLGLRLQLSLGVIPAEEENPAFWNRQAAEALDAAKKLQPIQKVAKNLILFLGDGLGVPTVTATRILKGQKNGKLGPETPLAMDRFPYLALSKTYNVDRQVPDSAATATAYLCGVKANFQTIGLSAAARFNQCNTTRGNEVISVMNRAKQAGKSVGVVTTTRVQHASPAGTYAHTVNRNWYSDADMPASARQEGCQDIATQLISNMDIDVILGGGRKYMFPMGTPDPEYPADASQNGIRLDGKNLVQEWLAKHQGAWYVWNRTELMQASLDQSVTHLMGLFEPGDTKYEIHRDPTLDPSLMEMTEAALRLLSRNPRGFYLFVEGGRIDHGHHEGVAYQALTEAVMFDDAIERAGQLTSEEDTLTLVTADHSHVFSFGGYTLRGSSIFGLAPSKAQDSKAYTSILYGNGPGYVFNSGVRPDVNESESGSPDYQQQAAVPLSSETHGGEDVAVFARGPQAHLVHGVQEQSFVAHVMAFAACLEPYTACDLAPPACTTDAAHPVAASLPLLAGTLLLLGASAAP

Chain of Mucolipin-3 (Q8TDD5 whole entry): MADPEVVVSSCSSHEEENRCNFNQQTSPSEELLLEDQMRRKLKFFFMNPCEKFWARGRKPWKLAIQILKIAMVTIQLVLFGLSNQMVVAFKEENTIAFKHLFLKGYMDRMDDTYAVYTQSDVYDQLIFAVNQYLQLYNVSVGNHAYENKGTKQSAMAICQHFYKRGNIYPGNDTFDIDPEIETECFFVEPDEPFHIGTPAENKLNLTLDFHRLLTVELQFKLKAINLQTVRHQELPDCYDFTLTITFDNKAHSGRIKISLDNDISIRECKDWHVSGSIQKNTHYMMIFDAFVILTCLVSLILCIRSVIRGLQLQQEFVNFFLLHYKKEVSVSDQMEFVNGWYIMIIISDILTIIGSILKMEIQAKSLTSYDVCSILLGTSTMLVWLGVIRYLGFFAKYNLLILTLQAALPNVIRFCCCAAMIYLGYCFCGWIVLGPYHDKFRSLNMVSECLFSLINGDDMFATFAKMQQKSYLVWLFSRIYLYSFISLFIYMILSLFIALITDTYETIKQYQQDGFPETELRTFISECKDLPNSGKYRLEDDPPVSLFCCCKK
Chain of Likely tRNA 2'-phosphotransferase (Q5A7N4 whole entry): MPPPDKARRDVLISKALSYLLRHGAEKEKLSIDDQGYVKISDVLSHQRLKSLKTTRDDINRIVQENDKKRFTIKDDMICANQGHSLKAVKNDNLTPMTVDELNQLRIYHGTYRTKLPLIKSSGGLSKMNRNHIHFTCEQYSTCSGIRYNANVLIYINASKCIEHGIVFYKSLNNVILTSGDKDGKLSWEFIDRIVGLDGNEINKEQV
Chain of Guanyl-specific ribonuclease T1 (P00651 whole entry): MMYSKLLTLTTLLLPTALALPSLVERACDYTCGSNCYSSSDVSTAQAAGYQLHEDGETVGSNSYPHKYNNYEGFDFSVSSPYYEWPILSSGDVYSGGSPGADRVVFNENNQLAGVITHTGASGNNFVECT
Chain of Ion channel NompC (Q7T1G6 whole entry): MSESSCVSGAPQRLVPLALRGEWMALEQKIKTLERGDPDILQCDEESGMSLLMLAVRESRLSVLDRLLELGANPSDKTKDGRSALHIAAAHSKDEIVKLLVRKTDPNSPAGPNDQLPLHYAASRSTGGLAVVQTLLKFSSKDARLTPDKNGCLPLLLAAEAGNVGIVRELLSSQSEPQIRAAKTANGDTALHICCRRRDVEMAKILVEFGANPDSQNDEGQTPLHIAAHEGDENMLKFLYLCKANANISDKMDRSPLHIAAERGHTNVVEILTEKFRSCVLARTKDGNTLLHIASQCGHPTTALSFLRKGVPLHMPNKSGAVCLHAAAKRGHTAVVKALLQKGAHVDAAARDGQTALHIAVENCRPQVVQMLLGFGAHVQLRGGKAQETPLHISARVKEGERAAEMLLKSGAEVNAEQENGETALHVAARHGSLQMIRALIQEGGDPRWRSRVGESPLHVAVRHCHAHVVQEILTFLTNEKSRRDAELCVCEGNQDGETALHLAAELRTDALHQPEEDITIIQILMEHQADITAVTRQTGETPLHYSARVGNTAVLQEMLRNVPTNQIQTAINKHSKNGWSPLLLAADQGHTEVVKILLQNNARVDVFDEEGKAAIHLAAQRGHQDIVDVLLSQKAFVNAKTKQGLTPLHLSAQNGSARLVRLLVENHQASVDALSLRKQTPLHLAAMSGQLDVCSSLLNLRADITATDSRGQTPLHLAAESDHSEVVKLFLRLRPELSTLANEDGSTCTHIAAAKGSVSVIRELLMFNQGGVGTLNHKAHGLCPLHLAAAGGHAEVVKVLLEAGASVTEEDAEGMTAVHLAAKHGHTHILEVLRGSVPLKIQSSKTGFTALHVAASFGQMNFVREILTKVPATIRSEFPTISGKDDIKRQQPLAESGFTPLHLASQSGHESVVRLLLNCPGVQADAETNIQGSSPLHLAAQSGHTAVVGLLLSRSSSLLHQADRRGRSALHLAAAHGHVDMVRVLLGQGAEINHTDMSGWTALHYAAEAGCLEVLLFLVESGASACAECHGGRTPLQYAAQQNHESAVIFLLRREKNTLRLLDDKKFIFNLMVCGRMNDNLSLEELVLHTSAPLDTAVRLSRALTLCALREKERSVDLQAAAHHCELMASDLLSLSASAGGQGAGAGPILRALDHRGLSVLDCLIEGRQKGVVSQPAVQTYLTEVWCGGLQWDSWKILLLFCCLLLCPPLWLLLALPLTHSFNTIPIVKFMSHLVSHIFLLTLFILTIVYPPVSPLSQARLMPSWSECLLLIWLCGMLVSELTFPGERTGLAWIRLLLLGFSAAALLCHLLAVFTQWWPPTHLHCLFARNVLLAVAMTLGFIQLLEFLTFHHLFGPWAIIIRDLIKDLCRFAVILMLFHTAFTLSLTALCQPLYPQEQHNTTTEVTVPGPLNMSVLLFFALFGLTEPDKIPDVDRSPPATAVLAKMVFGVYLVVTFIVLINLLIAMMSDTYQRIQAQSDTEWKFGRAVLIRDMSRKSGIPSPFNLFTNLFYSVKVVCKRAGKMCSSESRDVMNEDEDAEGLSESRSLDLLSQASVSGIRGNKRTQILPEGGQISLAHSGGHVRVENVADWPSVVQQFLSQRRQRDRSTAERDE

## COC(=O)c1ccc(C(=O)NC2CCCc3c2cnn3-c2cc(F)cc(F)c2)nc1 (centres undefined)
[1]
  EC50: 17.1 µM (active)
[2]
  EC50: 24.6 µM (active)
[3]
  EC50: 17.3 µM (active)
[4]
  EC50: 40 µM (active)
[5]
  CC50: 10.7 µM (active)
[6]
  CC50: 10.8 µM (active)
[7]
  IC50: 2.22 µM (active)

## CC(=O)N1C(=O)C(=C2C=C(C)OC(C)=C2)c2ccccc21
[8]
  IC50: 2.13 µM (active)
[9]
  EC50: 22 µM (inactive)
[10]
  IC50: > 2.06 µM (active)
[11]
  EC50: > 29.9 µM (not active)
[12]
  EC50: > 99 µM (inactive)
[13]
  EC50: > 99 µM (inactive)

## O=C(N/N=C/c1ccc2cccnc2c1)c1nc(O)c2ccccc2n1
[14]
  EC50: 7.78 µM (active)
